Measured values: PubChem BioAssay AID1159585 (Gregory J. Crowther, 2016)

What follows are molecules tested against Calcium-dependent protein kinase 1 (Plasmodium falciparum (isolate 3D7)) (UniProt P62344) (assay: PfCDPK1 kinase inhibitors, biochemical, TCAMS library (AID 1159585;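 also: inhibitors leave more ATP so luminescence rises with inhibition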)). Details: recombinant PfCDPK1, Kinase-Glo ATP depletion luminescence.
Chain of Calcium-dependent protein kinase 1 (Plasmodium falciparum (isolate 3D7)) (P62344 whole entry, looked up): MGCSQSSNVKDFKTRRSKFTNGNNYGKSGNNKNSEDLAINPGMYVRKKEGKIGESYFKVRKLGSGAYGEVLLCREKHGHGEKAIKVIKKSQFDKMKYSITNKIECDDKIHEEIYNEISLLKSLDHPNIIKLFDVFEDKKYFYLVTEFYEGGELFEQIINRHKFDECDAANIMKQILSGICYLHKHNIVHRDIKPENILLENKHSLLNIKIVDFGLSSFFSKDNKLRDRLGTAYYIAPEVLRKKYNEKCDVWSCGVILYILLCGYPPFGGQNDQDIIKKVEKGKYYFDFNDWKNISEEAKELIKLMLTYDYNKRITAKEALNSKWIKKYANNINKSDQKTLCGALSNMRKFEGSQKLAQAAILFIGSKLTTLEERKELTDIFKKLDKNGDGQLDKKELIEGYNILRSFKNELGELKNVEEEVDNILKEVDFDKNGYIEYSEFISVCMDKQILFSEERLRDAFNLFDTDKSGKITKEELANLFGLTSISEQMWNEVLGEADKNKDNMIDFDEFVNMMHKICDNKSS

Structure (SMILES) | IC50 [nM]
CCn1c(-c2nonc2N)nc2c(-c3cccc(Cl)c3)ncc(OCCCNCCc3cnc[nH]3)c21 | 138
CS(=O)(=O)Cc1ccc(Nc2nccc(N3CCCc4cc(NC(=O)Nc5cccc(C(F)(F)F)c5)ccc43)n2)cc1 | 145
CN1CCN(c2ccc(Nc3ncc(Cl)c(Nc4cccnc4C(N)=O)n3)cc2)CC1 | 12
COCCOc1ccc(Nc2nccc(-c3c(-c4cccc(NC(=O)c5c(F)cccc5F)c4)nn4ccccc34)n2)cc1Cl | 152
CCCN1CCN(CCNC(=O)c2cccc(Nc3nccc(Nc4ccc(Oc5ccccc5)cc4)n3)c2)CC1 | 336
CS(=O)(=O)Cc1ccc(Nc2nccc(-c3c(-c4cccc(NC(=O)C5CCCCC5)c4)nn4ncccc34)n2)cc1 | 37
CCn1c(-c2nc(-c3ccnc(N4CCN(C)CC4)c3)cnc2N)nc2cc(S(C)(=O)=O)ccc21 | 654
CN1CCN(Cc2cccc(-c3ccc4c(Nc5cc(O)c(Cl)cc5F)ccnc4c3)c2)CC1 | 762
O=C(Nc1cccc(-c2nn3ncccc3c2-c2ccnc(Nc3ccccc3)n2)c1)c1c(F)cccc1F | 39
Nc1ncc(-c2cn[nH]c2)cc1-c1nc2ncc(Cl)cc2[nH]1 | 280
CN(C)CCN(C)Cc1nc(-c2ccc3c(Nc4ccc(Oc5ccccc5)cc4)ccnc3c2)cs1 | 915
NCCNC(=O)c1ccc(-c2cnc3[nH]cc(-c4ccc(C(N)=O)cc4)c3c2)cc1 | 24
CN(C)CCNCc1ccc(-c2ccc3c(Nc4ccc(Oc5ccccc5)cc4)ccnc3c2)o1 | 681
N#Cc1ccc(-c2cnc3ccc(NCCc4cccnc4)nn23)cc1 | 246
COc1ccc(Nc2ncc(Cl)c(Nc3cccnc3C(N)=O)n2)cc1N1CCN(C)CC1 | 559
O=C(NCCN1CCCCC1)c1ccc(Nc2nccc(Nc3ccc(Oc4ccccc4)cc3)n2)cc1 | 103
CN(C)CCN(C)Cc1ccc(-c2ccc3c(Nc4ccc(Cl)cc4F)ccnc3c2)o1 | 604
c1ccc(Oc2ccc(Nc3ccnc4cc(-c5ccc(CNCCN6CCOCC6)o5)ccc34)cc2)cc1 | 435
CCN(CC)CCOc1ccc(Nc2ncc3cc(-c4c(Cl)cccc4Cl)c(=O)n(C)c3n2)cc1 | 780
Clc1ccc(-c2cnc3ccc(NCCc4cccnc4)nn23)cc1 | 371
O=c1[nH]ccc2nc(N[C@@H]3CCCNC3)nc(Nc3ccc(S(=O)(=O)N4CCOCC4)cc3)c12 | 146
COc1cccc(Nc2nccc(-c3c(-c4cccc(NC(=O)c5c(F)cccc5F)c4)nn4ccccc34)n2)c1 | 87
CS(=O)(=O)Cc1ccc(Nc2nccc(-c3c(-c4cccc(C(=O)Nc5c(F)cccc5F)c4)nn4ccccc34)n2)cc1 | 50
CNC(=O)c1ccccc1Nc1nc(Nc2ccc(N3CCOCC3)cc2)ncc1Cl | 144
COc1ccc(Nc2ncc(C#N)c(Nc3ccccc3C(N)=O)n2)cc1N1CCN(C)CC1 | 89

The next lines start with the values.

IC50 [nM] | Structure (SMILES)
19 | CC(C)(CN)c1nc(-c2ccc(Br)c(O)c2)c(-c2ccncc2)[nH]1
40 | Cc1cc(F)ccc1-c1nc(Nc2ccncc2)c2ccn(C)c2n1
834 | Nc1ncc(-c2cn[nH]c2)cc1-c1nc2ccc(Cl)cc2[nH]1
884 | Oc1cccc(Nc2ccnc3cc(-c4ccncc4)ccc23)c1
159 | CC(C)(C)CNCC(C)(C)c1nc(-c2ccc(Cl)c(O)c2)c(-c2ccncc2)[nH]1
347 | CC(C)(CNC(=O)C1CCN(Cc2ccc(Cl)cc2)CC1)c1nc(-c2ccc(Cl)c(O)c2)c(-c2ccncc2)[nH]1
416 | Cc1ccc(Nc2ccnc(Nc3ccc4c(c3)CS(=O)(=O)C4)n2)cc1O
213 | CN1CCC=C(C(=O)NCC(C)(C)c2nc(-c3ccc(Cl)c(O)c3)c(-c3ccncc3)[nH]2)C1
997 | Oc1cccc(Nc2ccnc3cc(-c4nccs4)ccc23)c1
539 | CC(C)(CNCc1ccc(Cl)c(Cl)c1)c1nc(-c2ccc(Cl)c(O)c2)c(-c2ccncc2)[nH]1
846 | Oc1cc(-c2nc(C3(CNCc4ccc(Cl)cc4)CCCCC3)[nH]c2-c2ccncc2)ccc1Cl
44 | CS(=O)(=O)c1cccc(-c2cnc3[nH]cc(-c4cccc(CCN)c4)c3c2)c1
